# Laboratory results published in patent US7651979B2, “Coordination complexes, and methods for preparing by combinatorial methods, assaying and using the same” (priority 2000, dated 2010).
# Key:
# [1] = tested on: BlaM HeLa cells; assay type: cell-based, human; conditions: for response of independently synthesized compounds on the BlaM HeLa assay: pure compounds made by non-combinatorial means; for ratio of green to blue fluorescence with increasing concentration: increasing concentrations, FIG. 7, twenty-eight hours
# Description: Another example of a subject assay is termed the CCF2/AM assay. The CCF2/AM dye is an effective assay for the presence of β-lactamase, and thus may be used as a sensor for its transcription. See, for example, U.S. Pat. No. 5,955,604 and WO 9630540. This screen in based on a cellular response that is relatively unique to cisplatin. […] See Sandman et al., Chem. Bio. 6:541-51 (1999). […] In addition, the rapid inhibition of transcription, which occurs prior to apoptosis, may be evaluated over a short period of time. In the BlaM HeLa cell line used herein, the inhibition of transcription coupled with the half-life of ambient β-lactamase results in a one-day screening protocol.
# To screen drug candidates for transcription inhibition activity, genetically modified HeLa cells developed by Aurora Biosciences were exposed to the products from the above parallel reactions. BlaM HeLa cells have been permanently transfected with a vector encoding the 29-kD plasmid encoded TEM-1 β-lactamase from E. coli. This enzyme is the product of the ampicillin resistance gene Amp^r, and is not normally expressed in mammalian cells.
# BlaM HeLa cells were grown up from stock provided by Aurora Biosciences using standard cell culture techniques. This cell line was grown in 10 cm plates by using a modified Dulbecco's Modified Eagle Medium supplemented with 10% fetal bovine serum, 2 mM L-glutamine, 1.0 mM sodium pyruvate, and 0.1 mM non-essential amino acids. Bacterial growth was inhibited through intermittent exposure to […], and selection of the BlaM cells was maintained through the weekly administration of 800 μg/mL G418 (geneticin).
# For plate reader-based experiments, HeLa cells were distributed into black, clear-bottom, 96-well plates (Corning). Nearly confluent 10 cm plates (60-70%) were trypsinized and distributed (100 μL) into the 96-well plates, and allowed to adhere and grow for approximately 18 h. Cells were then washed with 100 μL PBS and provided with fresh media prior to treatment. After treatment, the cells were exposed to the CCF2/AM dye for one hour, and measured for fluorescence on the fmax plate reader. The cellular response to platinum compounds was determined by taking the ratio of the absolute value of measured fluorescence at 530 nm (green) over the absolute value of measured fluorescence at 460 nm (blue). This response is corrected for the background of the microplate.
# Concentration and time-dependent studies were conducted with cisplatin and other pure platinum compounds to determine the response of the cells to platinum chemotherapeutics. For the library screen, cells were exposed to 30 μM of platinum product from the reactions for 28 hours. 72 reactions were screened manually per day, with each compound measured in triplicate. […] After the exposure period the cells were worked up using the CCF2/AM dye protocol, and hits were determined by their response related to that of a cisplatin standard at the same concentration. Initial hits were then rescreened for dose dependent toxicity, over a range from 0 to 75 μM concentrations.
# [2] = tested on: BlaM HeLa cells; assay: Northern blotting of RNA from BlaM HeLa cells; assay type: cell-based, human; conditions: 30 μM, 12 hours, FIG. 5
# Method: Two 10 cm plates of BlaM HeLa cells were grown to 60-70% confluence, and one treated with 30 μM cisplatin for twelve hours. After this treatment, RNA was extracted from the cells on each plate using an Ambion kit and quantified by UV-visible spectroscopy. The RNA was electrophoresed on an agarose-formaldehyde gel, transferred to a nylon membrane, and crosslinked with a Stratalinker UV device by using standard procedures. This blot was probed with ^32P labeled BlaM fragment from pcDNA-3 (Aurora Biosciences) and 7S RNA from pUC(Amp), and quantified by a Biorad phosphorimager apparatus.
compound,measurement,setting,value
"[NH2][Pt]([Cl])([Cl])[NH]C1CCC1 [ammine-cyclobutylamine complex, cis-ammine(cyclobutylamine)PtCl2]",response of independently synthesized compounds on the BlaM HeLa assay,[1],positive response
"[Cl][Pt]([Cl])([NH]C1CCC1)[NH]C1CCC1 [bis-cyclobutylamine species, cis-(cyclobutylamine)2PtCl2]",response of independently synthesized compounds on the BlaM HeLa assay,[1],positive response
CC(C)N.CC(C)N.[Cl-].[Cl-].[Pt+2] [cis-(isopropylamine)2PtCl2],response of independently synthesized compounds on the BlaM HeLa assay,[1],positive response
Cc1cccnc1N.N.[Cl][Pt][Cl] [cis-ammine(2-amino-3-picoline)dichloroplatinum(II)],response of independently synthesized compounds on the BlaM HeLa assay,[1],positive response
"N.N.[Cl][Pt][Cl] [cisplatin, cis-diamminedichloroplatinum(II)]",response (ratio of fluorescence at 530 nm (green) over 460 nm (blue)) in initial screen,"[1]; 30 μM, 28 hours, triplicate, response above 0.092 considered a hit",0.092
same,ratio of green to blue fluorescence with increasing concentration,[1],definite increase
same,time at which cell response peaked,"[1]; time dependence, FIG. 8",approximately 20 hours
same,transcription of both the BlaM vector and control 7S RNA,[2],decrease in transcription
O=[N+]([O-])[O-].[Ag+] [silver nitrate],transcription inhibition response,"[1]; in media, same concentration as cisplatin (~30 μM), FIG. 9",does not give a transcription inhibition response
"N.N.[Cl][Pt][Cl] [trans-DDP, trans-diamminedichloroplatinum(II)]",ratio of green to blue fluorescence with increasing concentration,[1],no increase
same,cell response over time,"[1]; time dependence, any of the times measured, FIG. 8",no cell response
